The source made the active and inactive calls. The calls are words filed in the database; no cut-off is given here.
Tests used:
HepG2 [1] = assay: Growth inhibition of human HepG2 cells by MTT assay; type: functional
MCF7 [2] = assay: Growth inhibition of human MCF7 cells at 10 uM by MTT assay relative to control; type: functional; details: for inhibition of growth at 10 µM: read-out: GI
HepG2 [3] = assay: Growth inhibition of human HepG2 cells at 10 uM by MTT assay relative to control; type: functional; details: for inhibition of growth at 10 µM: read-out: GI
MCF7 [4] = assay: Growth inhibition of human MCF7 cells by MTT assay; type: functional
[5] = Growth inhibition of human L-132 cells by MTT assay; type: cell-based, L132
[6] = Selectivity index, ratio of GI50 for human L-132 cells to GI50 for human MCF7 cells
[7] = Selectivity index, ratio of GI50 for human L-132 cells to GI50 for human HepG2 cells

COc1cc2oc(-c3ccccc3)cc(=O)c2c(OC)c1OC [BAICALEIN TRIMETHYL ETHER]
GI50 (HepG2 [1]): 54 µM | inhibition of growth at 10 µM (MCF7 [2]): > 50% | inhibition of growth at 10 µM (HepG2 [3]): > 50% | GI50 (MCF7 [4]): 91.4 µM

COc1cc2oc(-c3ccc(NC(=O)c4ccc([N+](=O)[O-])cc4)cc3)cc(=O)c2c(O)c1OC
inhibition of growth at 10 µM (MCF7 [2]): < 50% | inhibition of growth at 10 µM (HepG2 [3]): 40%

COc1cc2oc(-c3cccc(NC(=O)c4ccccc4Br)c3)cc(=O)c2c(OC)c1OC
GI50 (HepG2 [1]): 23.1 µM | inhibition of growth at 10 µM (MCF7 [2]): > 50% | inhibition of growth at 10 µM (HepG2 [3]): > 50% | GI50 (MCF7 [4]): 55 µM

COc1ccccc1C(=O)Nc1cccc(-c2cc(=O)c3c(OC)c(OC)c(OC)cc3o2)c1
GI50 (HepG2 [1]): 7.53 µM | inhibition of growth at 10 µM (MCF7 [2]): > 50% | inhibition of growth at 10 µM (HepG2 [3]): > 50% | GI50 (MCF7 [4]): 15.3 µM

COc1cc2oc(-c3cccc(NC(=O)c4ccc(C(F)(F)F)cc4)c3)cc(=O)c2c(OC)c1OC
GI50 (HepG2 [1]): 61.1 µM | inhibition of growth at 10 µM (MCF7 [2]): > 50% | inhibition of growth at 10 µM (HepG2 [3]): > 50% | GI50 (MCF7 [4]): 10.6 µM

COc1cc2oc(-c3ccc(NC(=O)c4ccc(Br)cc4)cc3)cc(=O)c2c(O)c1OC
inhibition of growth at 10 µM (MCF7 [2]): < 50% | inhibition of growth at 10 µM (HepG2 [3]): < 50%

COc1cc2oc(-c3cccc(NC(=O)c4cccc(Br)c4)c3)cc(=O)c2c(O)c1OC
GI50 (HepG2 [1]): 44.8 µM | inhibition of growth at 10 µM (MCF7 [2]): > 50% | inhibition of growth at 10 µM (HepG2 [3]): > 50% | GI50 (MCF7 [4]): 6.94 µM

COc1cc2oc(-c3cccc(NC(=O)c4ccc([N+](=O)[O-])cc4)c3)cc(=O)c2c(OC)c1OC
GI50 (HepG2 [1]): 18.8 µM | inhibition of growth at 10 µM (MCF7 [2]): > 50% | inhibition of growth at 10 µM (HepG2 [3]): > 50% | GI50 (MCF7 [4]): 20.1 µM

COc1cccc(C(=O)Nc2cccc(-c3cc(=O)c4c(O)c(OC)c(OC)cc4o3)c2)c1
GI50 (HepG2 [1]): > 100 µM | inhibition of growth at 10 µM (MCF7 [2]): > 50% | inhibition of growth at 10 µM (HepG2 [3]): > 50% | GI50 (MCF7 [4]): 35.6 µM

O=c1cc(-c2ccccc2)oc2cc(O)c(O)c(O)c12
growth inhibition (GI) (MCF7 [2]): inactive | growth inhibition (GI) (HepG2 [3]): inactive

COc1cc2oc(-c3cccc(NC(=O)c4ccc(C)cc4)c3)cc(=O)c2c(OC)c1OC
GI50 (HepG2 [1]): 9.75 µM | inhibition of growth at 10 µM (MCF7 [2]): > 50% | inhibition of growth at 10 µM (HepG2 [3]): > 50% | GI50 (MCF7 [4]): 8.32 µM

COc1cc2oc(-c3ccc(NC(=O)c4ccc(C(F)(F)F)cc4)cc3)cc(=O)c2c(O)c1OC
inhibition of growth at 10 µM (MCF7 [2]): < 50% | inhibition of growth at 10 µM (HepG2 [3]): < 50%

COc1cc2oc(-c3ccc(NC(=O)c4ccccc4Br)cc3)cc(=O)c2c(O)c1OC
inhibition of growth at 10 µM (MCF7 [2]): < 50% | inhibition of growth at 10 µM (HepG2 [3]): < 50%

COc1cc2oc(-c3cccc(NC(=O)c4ccccc4)c3)cc(=O)c2c(OC)c1OC
GI50 (HepG2 [1]): 11.7 µM | inhibition of growth at 10 µM (MCF7 [2]): > 50% | inhibition of growth at 10 µM (HepG2 [3]): > 50% | GI50 (MCF7 [4]): 12.1 µM

COc1cc2oc(-c3cccc(NC(=O)c4cccc(Br)c4)c3)cc(=O)c2c(OC)c1OC
GI50 (HepG2 [1]): 10.9 µM | inhibition of growth at 10 µM (MCF7 [2]): > 50% | inhibition of growth at 10 µM (HepG2 [3]): > 50% | GI50 (MCF7 [4]): 6.34 µM

COc1cc2oc(-c3ccc(NC(=O)c4ccc(Cl)cc4)cc3)cc(=O)c2c(O)c1OC
inhibition of growth at 10 µM (MCF7 [2]): < 50% | inhibition of growth at 10 µM (HepG2 [3]): < 50%

COc1cc2oc(-c3ccc(NC(=O)c4ccc5c(c4)OCO5)cc3)cc(=O)c2c(O)c1OC
inhibition of growth at 10 µM (MCF7 [2]): < 50% | inhibition of growth at 10 µM (HepG2 [3]): 40%

COc1cc2oc(-c3ccc(NC(=O)c4cccc(Br)c4)cc3)cc(=O)c2c(O)c1OC
inhibition of growth at 10 µM (MCF7 [2]): < 50% | inhibition of growth at 10 µM (HepG2 [3]): 40%

COc1cc2oc(-c3ccc(NC(=O)c4ccccc4)cc3)cc(=O)c2c(O)c1OC
inhibition of growth at 10 µM (MCF7 [2]): < 50% | inhibition of growth at 10 µM (HepG2 [3]): < 50%

COc1ccccc1C(=O)Nc1ccc(-c2cc(=O)c3c(O)c(OC)c(OC)cc3o2)cc1
inhibition of growth at 10 µM (MCF7 [2]): < 50% | inhibition of growth at 10 µM (HepG2 [3]): < 50%

COc1cc2oc(-c3cccc(NC(=O)c4ccc(F)cc4)c3)cc(=O)c2c(OC)c1OC
GI50 (HepG2 [1]): 47.2 µM | inhibition of growth at 10 µM (MCF7 [2]): > 50% | inhibition of growth at 10 µM (HepG2 [3]): > 50% | GI50 (MCF7 [4]): 14.7 µM

COc1cc2oc(-c3ccc(NC(=O)c4ccc(F)cc4)cc3)cc(=O)c2c(O)c1OC
inhibition of growth at 10 µM (MCF7 [2]): < 50% | inhibition of growth at 10 µM (HepG2 [3]): < 50%

COc1cc2oc(-c3ccc(NC(=O)c4ccc(C)cc4)cc3)cc(=O)c2c(O)c1OC
inhibition of growth at 10 µM (MCF7 [2]): < 50% | inhibition of growth at 10 µM (HepG2 [3]): < 50%

COc1cc2oc(-c3cccc(NC(=O)c4ccc(Cl)cc4)c3)cc(=O)c2c(OC)c1OC
GI50 (HepG2 [1]): 21.3 µM | inhibition of growth at 10 µM (MCF7 [2]): > 50% | inhibition of growth at 10 µM (HepG2 [3]): > 50% | GI50 (MCF7 [4]): 8.78 µM

COc1cccc(C(=O)Nc2ccc(-c3cc(=O)c4c(O)c(OC)c(OC)cc4o3)cc2)c1
inhibition of growth at 10 µM (MCF7 [2]): < 50% | inhibition of growth at 10 µM (HepG2 [3]): < 50%

COc1cc([C@@H]2c3cc4c(cc3[C@@H](O[C@@H]3O[C@@H]5CO[C@@H](C)O[C@H]5[C@H](O)[C@H]3O)[C@H]3COC(=O)[C@H]23)OCO4)cc(OC)c1O [ETOPOSIDE]
GI50 [5]: 10.4 µM

COC(=O)c1ccc(C(=O)Nc2cccc(-c3cc(=O)c4c(OC)c(OC)c(OC)cc4o3)c2)cc1
GI50 (HepG2 [1]): > 100 µM | inhibition of growth at 10 µM (MCF7 [2]): > 50% | inhibition of growth at 10 µM (HepG2 [3]): > 50% | GI50 (MCF7 [4]): 30.3 µM

COc1cc2oc(-c3ccc(NC(=O)c4ccc(C#N)cc4)cc3)cc(=O)c2c(O)c1OC
inhibition of growth at 10 µM (MCF7 [2]): < 50% | inhibition of growth at 10 µM (HepG2 [3]): < 50%

COc1cc2oc(-c3cccc(NC(=O)c4ccc(Br)cc4)c3)cc(=O)c2c(OC)c1OC
GI50 (HepG2 [1]): 8.85 µM | inhibition of growth at 10 µM (MCF7 [2]): > 50% | inhibition of growth at 10 µM (HepG2 [3]): > 50% | GI50 (MCF7 [4]): 9.65 µM

COc1ccc(C(=O)Nc2cccc(-c3cc(=O)c4c(OC)c(OC)c(OC)cc4o3)c2)cc1
GI50 (HepG2 [1]): 22.2 µM | inhibition of growth at 10 µM (MCF7 [2]): > 50% | inhibition of growth at 10 µM (HepG2 [3]): > 50% | GI50 (MCF7 [4]): 6.87 µM

COc1cccc(C(=O)Nc2cccc(-c3cc(=O)c4c(OC)c(OC)c(OC)cc4o3)c2)c1
RatioGI50 [6]: 2 - 3 | RatioGI50 [7]: 2 - 3 | GI50 (HepG2 [1]): 7.06 µM | inhibition of growth at 10 µM (MCF7 [2]): > 50% | GI50 [5]: 20.9 µM | inhibition of growth at 10 µM (HepG2 [3]): > 50% | GI50 (MCF7 [4]): 7.67 µM

COc1ccc(C(=O)Nc2ccc(-c3cc(=O)c4c(O)c(OC)c(OC)cc4o3)cc2)cc1
inhibition of growth at 10 µM (MCF7 [2]): < 50% | inhibition of growth at 10 µM (HepG2 [3]): < 50%

COc1cc2oc(-c3ccc(NC(=O)c4cccc(C#N)c4)cc3)cc(=O)c2c(O)c1OC
inhibition of growth at 10 µM (MCF7 [2]): < 50% | inhibition of growth at 10 µM (HepG2 [3]): < 50%

COC(=O)c1ccc(C(=O)Nc2ccc(-c3cc(=O)c4c(O)c(OC)c(OC)cc4o3)cc2)cc1
inhibition of growth at 10 µM (MCF7 [2]): < 50% | inhibition of growth at 10 µM (HepG2 [3]): < 50%

COc1cc2oc(-c3cccc(NC(=O)c4cccc(C#N)c4)c3)cc(=O)c2c(OC)c1OC
GI50 (HepG2 [1]): 11.9 µM | inhibition of growth at 10 µM (MCF7 [2]): > 50% | inhibition of growth at 10 µM (HepG2 [3]): > 50% | GI50 (MCF7 [4]): 41.7 µM

COc1ccccc1C(=O)Nc1cccc(-c2cc(=O)c3c(O)c(OC)c(OC)cc3o2)c1
GI50 (HepG2 [1]): > 100 µM | inhibition of growth at 10 µM (MCF7 [2]): > 50% | inhibition of growth at 10 µM (HepG2 [3]): > 50% | GI50 (MCF7 [4]): 1.83 µM

COc1cc2oc(-c3cccc(NC(=O)c4ccc(C#N)cc4)c3)cc(=O)c2c(OC)c1OC
GI50 (HepG2 [1]): 10.2 µM | inhibition of growth at 10 µM (MCF7 [2]): > 50% | inhibition of growth at 10 µM (HepG2 [3]): > 50% | GI50 (MCF7 [4]): 12.7 µM

COc1cc2oc(-c3cccc(NC(=O)c4ccc5c(c4)OCO5)c3)cc(=O)c2c(O)c1OC
GI50 (HepG2 [1]): 45.1 µM | inhibition of growth at 10 µM (MCF7 [2]): > 50% | inhibition of growth at 10 µM (HepG2 [3]): > 50% | GI50 (MCF7 [4]): 8.47 µM

COc1cc2oc(-c3cccc(NC(=O)c4ccc5c(c4)OCO5)c3)cc(=O)c2c(OC)c1OC
RatioGI50 [6]: 2 - 3 | RatioGI50 [7]: 2 - 3 | GI50 (HepG2 [1]): 5.94 µM | inhibition of growth at 10 µM (MCF7 [2]): > 50% | GI50 [5]: 18 µM | inhibition of growth at 10 µM (HepG2 [3]): > 50% | GI50 (MCF7 [4]): 9.12 µM

COc1ccc(C(=O)Nc2cccc(-c3cc(=O)c4c(O)c(OC)c(OC)cc4o3)c2)cc1
GI50 (HepG2 [1]): > 100 µM | inhibition of growth at 10 µM (MCF7 [2]): > 50% | inhibition of growth at 10 µM (HepG2 [3]): > 50% | GI50 (MCF7 [4]): 2.05 µM
